Columns and labels:
[1] = test system: AP2-like-ethylene-responsive transcription factor (gene 4, Solyc11g072600.1); assay: qRT-PCR expression of gene 4 in tomato leaves; assay type: in vivo, Tomato ecotype corbarino; design: key: relative expression normalized to a-tubulin housekeeping gene
Description: (§1) Tomato ecotype “corbarino” reported to be susceptible to TSWV infection was used in the experiment. Plants were grown in pots in a climatic chamber with a photoperiod of 16/8 hour at 25° C.
(§2) The viral strain (TSWV PV PV-0393) was utilized in the experiment. The virus was mechanically inoculated and propagated on tomato “corbarino”. The inoculum was prepared in an ice-cooled mortar grounding 1 gr of infected tomato tissue in 10 ml of Na-phosphate buffer 0.01M. The fresh prepared inoculum was stored in ice before use. Tomato plants at BBCH16 were dusted with Carborundum 600 mesh and selected leaves were rubbed with some droplets of inoculum. After 5 min. plants were sprayed with sterile water to remove the excess of inoculum and preserve the cell turgor.
(§3) Four treatments were compared: i) Mock inoculated; ii) TSWV; iii) 0.25% Laminarin; iv) 0.25% Laminarin+TSWV. In the last treatment the virus was inoculated 24 hrs after the laminarin application.
(§4) Total RNA was extracted from systemic infected tomato leaves by using the Quick-RNA Plant Kit (Zymo Research) following the manufacturer instructions. The extractions were carried out using three plants after 12 h, 24 h, 48 h, 72 h, 7 days after inoculation. Leaves were instantly frozen in liquid nitrogen after cutting to avoid any deterioration of the sample as well as any defense reaction. The RNA concentration was quantified by measuring the absorbance at 260 nm using a Nanodrop 2000 (Thermofisher). The purity of all of the RNA samples was assessed at an absorbance ratio of OD260/280 and OD260/230, while its structural integrity was checked by agarose gel electrophoresis. Only high-quality RNA with OD 260/280 and OD 260/230>2 was used for subsequent steps. Single-stranded cDNA was synthesized from 1 μg of total RNA using an iScript™ Select cDNA Synthesis Kit and random hexamers as primers (Bio-Rad, Milan, Italy), according to the manufacturer's instructions. Three biological replicates were created from the 3 leaves collected to test 15 genes. Alpha tubulin was used as reference gene.
(§5) qPCR reactions were performed with BioRad (Applied Biosystems, Foster City, CA, USA) using SYBR R Green. Each reaction was performed in 20 μl containing 10 μl of 2× Power SYBR Green PCR Master Mix (Life Technologies), 0.2-0.3 μM primers and cDNA samples diluted 1:20. Each qPCR reaction was performed in triplicate. Reactions were run using the cycling parameter described previously (Reid et al., 2006) and the qPCR data were analyzed by the Ct method (Pfaffl, 2001). In order to analyze the qPCR data, a-tubulin gene was used as housekeeping to determine the relative expression level of the other genes analyzed in this work. For the determination of qPCR efficiency of each primer pairs, a standard curve was performed using the following cDNA dilutions: 1:4, 1:16, 1:64; 1:256 and 1:1024. Every measurement was made in triplicate. The corresponding qPCR efficiencies (E) were calculated for every primer pair with the software 7300 System SDS software (Applied Biosystems, Foster City, CA, USA) according to the equation E=(10−1/slope−1)×100 (Rutledge and Stewart, 2008).
(§6) The significance of the differences between the gene expressions levels were compared by one-way ANOVA (p=0.01) and the means were separated by Tukey post-hoc test using SPSS ver.26 ([…]).

[2] = test system: 1-aminocryclopropane-1-carboxylate oxidase-like protein (gene 6, Solyc11g072100.1); assay: qRT-PCR expression of gene 6 in tomato leaves; assay type: in vivo, Tomato ecotype corbarino; design: key: relative expression normalized to a-tubulin housekeeping gene
Description: as §1, §2, §3, §4, §5, §6

With laminarin the RQ1 ([1]; 12 hr, Laminarin + virus) was 12.523, the RQ2 ([1]; 12 hr, Laminarin + virus) was 0.9104 and the RQ3 ([1]; 12 hr, Laminarin + virus) was 10.299. It also gave an RQ mean ([1]; 12 hr, Laminarin + virus) of 10.642, an RQ1 ([1]; 12 hr, Laminarin alone) of 0.9931 and an RQ2 ([1]; 12 hr, Laminarin alone) of 0.9090. For the same substance, the RQ3 ([1]; 12 hr, Laminarin alone) was 0.7654, the RQ mean ([1]; 12 hr, Laminarin alone) was 0.8892 and the RQ1 ([1]; 24 hr, Laminarin + virus) was 1.250. The RQ2 ([1]; 24 hr, Laminarin + virus) was 1.754, the RQ3 ([1]; 24 hr, Laminarin + virus) was 1.545 and the RQ mean ([1]; 24 hr, Laminarin + virus) was 1.516. For the same substance, the RQ1 ([1]; 24 hr, Laminarin alone) was 1.744, the RQ2 ([1]; 24 hr, Laminarin alone) was 1.728 and the RQ3 ([1]; 24 hr, Laminarin alone) was 1.516. For the same substance, the RQ mean ([1]; 24 hr, Laminarin alone) was 1.662, the RQ1 ([1]; 48 hr, Laminarin + virus) was 13.802 and the RQ2 ([1]; 48 hr, Laminarin + virus) was 15.313. For the same substance, the RQ3 ([1]; 48 hr, Laminarin + virus) was 21.904, the RQ mean ([1]; 48 hr, Laminarin + virus) was 17.006 and the RQ1 ([1]; 48 hr, Laminarin alone) was 15.231. The RQ2 ([1]; 48 hr, Laminarin alone) was 15.784, the RQ3 ([1]; 48 hr, Laminarin alone) was 37.709 and the RQ mean ([1]; 48 hr, Laminarin alone) was 22.908. The RQ1 ([1]; 72 hr, Laminarin + virus) was 35.424, the RQ2 ([1]; 72 hr, Laminarin + virus) was 26.180 and the RQ3 ([1]; 72 hr, Laminarin + virus) was 29.297. It also gave an RQ mean ([1]; 72 hr, Laminarin + virus) of 30.301, an RQ1 ([1]; 72 hr, Laminarin alone) of 25.807 and an RQ2 ([1]; 72 hr, Laminarin alone) of 30.148. It also gave an RQ3 ([1]; 72 hr, Laminarin alone) of 26.311, an RQ mean ([1]; 72 hr, Laminarin alone) of 27.422 and an RQ1 ([2]; 12 hr, Laminarin alone) of 0.9088. It also gave an RQ2 ([2]; 12 hr, Laminarin alone) of 0.971, an RQ3 ([2]; 12 hr, Laminarin alone) of 0.8924 and an RQ mean ([2]; 12 hr, Laminarin alone) of 0.9241. It also gave an RQ1 ([2]; 24 hr, Laminarin + virus) of 13.422, an RQ2 ([2]; 24 hr, Laminarin + virus) of 17.528 and an RQ3 ([2]; 24 hr, Laminarin + virus) of 12.610. For the same substance, the RQ mean ([2]; 24 hr, Laminarin + virus) was 14.520, the RQ1 ([2]; 24 hr, Laminarin alone) was 16.709 and the RQ2 ([2]; 24 hr, Laminarin alone) was 18.603. The RQ3 ([2]; 24 hr, Laminarin alone) was 0.8182, the RQ mean ([2]; 24 hr, Laminarin alone) was 14.498 and the RQ1 ([2]; 48 hr, Laminarin + virus) was 14.823. The RQ2 ([2]; 48 hr, Laminarin + virus) was 17.395, the RQ3 ([2]; 48 hr, Laminarin + virus) was 0.9742 and the RQ mean ([2]; 48 hr, Laminarin + virus) was 13.987. The RQ1 ([2]; 48 hr, Laminarin alone) was 16.033, the RQ2 ([2]; 48 hr, Laminarin alone) was 16.927 and the RQ3 ([2]; 48 hr, Laminarin alone) was 10.675. The RQ mean ([2]; 48 hr, Laminarin alone) was 14.545, the RQ1 ([2]; 72 hr, Laminarin + virus) was 26.404 and the RQ2 ([2]; 72 hr, Laminarin + virus) was 20.406. For the same substance, the RQ3 ([2]; 72 hr, Laminarin + virus) was 19.154, the RQ mean ([2]; 72 hr, Laminarin + virus) was 21.988 and the RQ1 ([2]; 72 hr, Laminarin alone) was 27.013. It also gave an RQ2 ([2]; 72 hr, Laminarin alone) of 20.615, an RQ3 ([2]; 72 hr, Laminarin alone) of 19.604 and an RQ mean ([2]; 72 hr, Laminarin alone) of 22.410.

Source: patent US20240099214A1, “PLANT DEFENCE GENE EXPRESSION” (UPL Corporation Limited, priority 2021, published 2024)
